# Results as given in patent publication US9642859B2, “Use of capsazepine and analogs thereof to treat cancer” (THE BOARD OF REGENTS OF THE UNIVERSITY OF TEXAS SYSTEM, priority 2012, dated 2017).
# Columns and labels:
# [1] = rat model, high intravenous administration dose; cited from earlier work
# [2] = tested on: CFA-induced mechanical hyperalgesia; conditions: guinea pigs; cited from earlier work
# [3] = tested on: OSCC cell lines (HSC3, SCC4, and SCC25); experiment: Western blot analysis of cleaved PARP; format: cell-based, human; conditions: increasing doses of CPZ, 24 h
# Procedure: FIG. 1F. […] The Control (Ctrl) is […].
# (§1) In particular, Table 1 provides additional cell cycle distribution data of OSCC cells (%) treated with 0 μM, 30 μM, 60 μM, or 90 μM CPZ for 24 hours. Data for OSCC cell lines HSC3, SCC4, and SCC25 are also provided in diagrams of FIGS. 1G-1, 1G-2, and 1G-3, respectively.
# [4] = Tolerability observations in tumor bearing mice treated intratumorally; format: in vivo
# Procedure: Treatments. CPZ (5 mg) was diluted in 250 μl of 100% DMSO to yield a final concentration of 20 μg/μl of stock solution. Stock solution (100 m) was subsequently diluted in 7% DMSO in sterile saline generating a final concentration of 1 μg/μl. A total of 40 μg in 40 μl was injected intra-tumorally. Control xenografts were injected intra-tumorally with 40 μl of vehicle control (7% DMSO). Mice were monitored daily for tumor growth, cachexia, and weight loss. Tumor volumes and body weight were recorded every other day. Tumor volumes were calculated by the formula: (4π/3)×(w/2)2×(l/2), where w=width and l=length. Measurements were made using a digital caliper. At the conclusion of the experiments, mice were anaesthetized with isoflurane and cervical dislocation, blood was collected, and the serum was separated and stored at −80° C. until assayed. Biochemical analysis of serum was performed by the Mouse Metabolic Phenotyping Center (Yale School of Medicine, New Haven, Conn.). Tumors were dissected and placed in 10% neutral buffered formalin (SIGMA, St. Louis, Mo.) and processed for histological analysis.
# [5] = tested on: OSCC cell lines (HSC3, SCC4, and SCC25); experiment: Calcium imaging of OSCC cell lines; format: cell-based, human; conditions: capsazepine 30 μM (cytotoxic dose)
# Procedure: FIGS. 1J-1 to 1J-2. FIGS. 1J-1(a) to (c): […] FIGS. 1J-2(a) to (c): […] Arrow indicates time point when treatment was added. […] This was due to the toxic effects of this high capsaicin concentration which permeablized the cell membrane allowing calcium to flow freely […] the cell. This was not reversed by capsazepine. […] These finding confirm that activation of TRPV1 is not the mechanism by which cell death is induced using capsazepine.
# SCC4 = experiment: Additional cell proliferation assay, SCC4; format: cell-based, human; conditions: SCC4, 24 hour treatment
# Text: (§2) Observed reductions in cell proliferation in these additional in vitro studies are as follows: SCC4, 40%; HSC3, 50%; SCC25, 80%; Cal27, 15%; MDA231, 56%; and LnCap, 37%.
# OSCC xenografts = experiment: TUNEL staining of OSCC xenografts; format: in vivo, mice; conditions: CPZ treated xenografts, p<0.001
# Procedure: FIG. 15A-15C. TUNEL staining of OSCC xenografts. FIG. 15A: Representative photomicrograph of TUNEL stain of HSC3 xenograft (10×) treated with vehicle control. […] FIG. 15B: Number of apoptotic figures per field in vehicle and 40 μg capsazepine (CPZ) treated SCC4 xenografts. FIG. 15C: Number of apoptotic figures per field in vehicle and CPZ (20 m) treated SCC25 xenografts. Student's T-Test of the average of six fields with n=3; ***p<0.001.
# At the conclusion of the experiment, serum was collected for liver and kidney function analysis. […] Tumors were analyzed histologically using H&E (hematoxylin and eosin) and TUNEL (terminal deoxyribonucleotidyl transferase-mediated dUTP nick end labeling) staining for detection of DNA fragmentation associated with apoptosis, and apoptotic figures were quantified. [FIGS. 15-1 to 15-3] […] Therefore, CPZ empirically has shown promise for being a well-tolerated treatment for OSCC.
# [6] = tested on: MDA231 breast cancer cells; experiment: Cell viability assay of MDA231 cells with and without NAC; format: cell-based, human; conditions: 24 h
# SCC25 = experiment: Cell cycle analysis by DNA profile FACS, SCC25; format: cell-based, human; conditions: 24 hours
# Procedure: as §1
# HSC3 cells = experiment: Cell viability assay of HSC3 cells, dose response curve; format: cell-based; conditions: Homo sapiens, HSC-3, HSC3 cells, FIG. 1K
# Text: FIG. 1K. Cell viability assay of HSC3 cells treated with increasing concentrations of curcumin; […]
# [7] = tested on: PC3 prostate cancer cells; experiment: Cell viability assay of PC3 cells with and without NAC; format: cell-based, human; conditions: PC3 prostate cancer cells, 24 h
# HSC3 = experiment: Additional cell proliferation assay, HSC3; format: cell-based, human; conditions: HSC3, 24 hour treatment
# Text: as §2
# OSCC cell lines = experiment: ROS assays by flow cytometry (DCF-DA); format: cell-based, human; conditions: 30 μM capsazepine, 1 h
# Procedure: FIGS. 1I-1 to 1I-3. Reactive oxygen species (ROS) assays. The level of ROS in OSCC cell lines was examined by flow cytometry using 2,7-dichlorodihydrofluorescein diacetate (DCFH-DA; Sigma). Approximately 3×10^5 cells were plated in 12-well plates. To detect ROS, cells were incubated for 30 min at 37° C. with DCF-DA, washed and then treated for 1 h with 30 μM capsazepine (grey, thick line), 150 μM capsaicin (grey, thin line), 30 μM capsazepine+150 μM capsaicin (black line), or vehicle control (dotted line). The cells were harvested, washed twice, and analyzed by flow cytometry.
# FIGS. 1I-4(a)-(b) to 1I-6(a)-(b). Induction of ROS in OSCC cell lines. (a). ROS induction in OSCC cell lines following 1 h treatment with 30 μM CPZ (black line) compared to vehicle control. (b). ROS induction in OSCC cell lines following 1 h treatment with 30 μM CPZ is reversed by NAC co-treatment (black line) as indicated in the shift in their peaks to the left.
# ROS levels in OSCC cell lines were examined by flow cytometry using 2,7-dichlorodihydrofluorescein diacetate (DCF-DA; Sigma-Aldrich, St. Louis, Mo.). Cells (3×10^5) were plated in 12-well plates and incubated for 30 min with DCF-DA at 37° C. then treated with 30 μM capsazepine using phenol free media with and without 10 mM NAC. Treated cells were incubated for 1 h at 37° C., harvested, washed twice, and analyzed by FACS.
smiles,measurement,setting,value
"Oc1cc2c(cc1O)CN(C(=S)NCCc1ccc(Cl)cc1)CCC2 [CPZ, 2-[2-(4-chlorphenyl)ethylamino-thiocarbonyl]-7,8-dihydroxy-2,3,4,5-tetrahydro-1H-2-benzazepine]",hyperthermia,[1],does not cause hyperthermia
same,CFA-induced mechanical hyperalgesia,[2],Significantly reversed
same,"cleaved PARP (c-PARP, marker of apoptosis)",[3],induction of cleaved PARP
same,body weight,[4]; approximately two-week intra-tumoral CPZ treatment,did not lose weight
same,adjacent healthy tissues,[4]; intratumoral injection with CPZ,"No inflammation, ulceration, necrosis or pain were evident"
same,intra-cellular calcium levels,[5],had no effect on intra-cellular calcium levels
same,reduction in cell proliferation,SCC4,40%
same,apoptotic figures in treated tumors (TUNEL),OSCC xenografts,significant increase in apoptotic figures
same,cytotoxicity,[6],significant dose dependent cytotoxicity
same,G0/G1,"SCC25; SCC25, CPZ 30 μM",42.92%
same,G2/M,"SCC25; SCC25, CPZ 30 μM",3.3%
same,S,"SCC25; SCC25, CPZ 30 μM",9.01%
same,SubG1,"SCC25; SCC25, CPZ 30 μM",44.77%
same,G0/G1,"SCC25; SCC25, CPZ 60 μM",28.63%
same,G2/M,"SCC25; SCC25, CPZ 60 μM",6.11%
same,S,"SCC25; SCC25, CPZ 60 μM",14.78%
same,SubG1,"SCC25; SCC25, CPZ 60 μM",50.48%
same,G0/G1,"SCC25; SCC25, CPZ 90 μM",17.23%
same,G2/M,"SCC25; SCC25, CPZ 90 μM",2.5%
same,S,"SCC25; SCC25, CPZ 90 μM",10.36%
same,SubG1,"SCC25; SCC25, CPZ 90 μM",69.91%
same,IC50,HSC3 cells,30 µM
same,cytotoxicity,[7],significant dose dependent cytotoxicity
same,reduction in cell proliferation,HSC3,50%
same,level of ROS,OSCC cell lines,increase in ROS
